The target of this assay is D(2) dopamine receptor (Rattus norvegicus, UniProt P61169). The assay can be described thus: Inhibition of [3H](-)-sulpiride binding to rat striatum dopamine receptor D2. It counts as tissue-based.
D(2) dopamine receptor, sequence (P61169 whole entry): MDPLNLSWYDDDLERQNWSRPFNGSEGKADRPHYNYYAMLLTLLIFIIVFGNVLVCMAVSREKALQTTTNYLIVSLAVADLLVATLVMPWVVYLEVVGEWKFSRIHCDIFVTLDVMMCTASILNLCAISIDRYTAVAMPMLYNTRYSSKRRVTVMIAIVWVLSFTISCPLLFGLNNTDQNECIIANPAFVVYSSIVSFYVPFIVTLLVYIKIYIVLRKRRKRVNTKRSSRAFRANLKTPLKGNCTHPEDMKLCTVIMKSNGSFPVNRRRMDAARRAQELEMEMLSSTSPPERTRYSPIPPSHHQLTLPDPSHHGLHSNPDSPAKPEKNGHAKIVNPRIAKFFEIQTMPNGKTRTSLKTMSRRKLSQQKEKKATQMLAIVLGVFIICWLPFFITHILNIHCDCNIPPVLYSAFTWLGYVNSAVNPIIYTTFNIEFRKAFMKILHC
With `CCCCN1CC[C@@H]2c3ccccc3CC[C@H]2C1`, the IC50 (in general, the concentration at which inhibition is half-maximal) is 389 nM. In the case of `c1ccc(CCN2CC[C@H]3c4ccccc4CC[C@H]3C2)cc1`, the IC50 was 162 nM. In turn, `COc1ccc(CN2CC[C@H]3c4ccccc4CC[C@H]3C2)cc1` showed an IC50 of 35.5 nM. As for `CCCCN1CCC2=C(CCc3ccccc32)C1`, the IC50 was 63.1 nM. Consider `CC(C)(C)c1ccc(CN2CC[C@H]3c4ccccc4CC[C@H]3C2)cc1`, for which the IC50 is 288 nM. The compound `CCCCN1CC[C@H]2c3ccccc3CC[C@H]2C1` showed an IC50 of 145 nM. Compound `CCCCN1CCC2=C(CCCc3ccccc32)C1` showed an IC50 of 61.7 nM. For the compound `O=[N+]([O-])c1ccc(CCN2CC[C@H]3c4ccccc4CC[C@H]3C2)cc1`, the IC50 is 589 nM. As for `CCCCN1CCC2=C(Cc3ccccc32)C1`, the figure is 60.3 nM; as for `c1ccc2c(c1)CC[C@H]1CN(C3CCCCC3)CC[C@@H]21`, 2690 nM. As for `c1ccc2c(c1)CC[C@H]1CN(C34C[C@H]5C[C@@H](C3)C[C@@H](C4)C5)CC[C@@H]21`, the IC50 was above 10000 nM. For `CCCCN1CCC2c3ccccc3CCCC2C1` (configuration not stated), the IC50 is 166 nM.

Values taken from ChEMBL document CHEMBL1126294, “Benz[f]isoquinoline analogues as high-affinity sigma ligands” (J Med Chem, 1992).
